Where a name gives a salt, the structure may show the parent alone. Read-outs that look alike come from different tables or passages of the source.
Columns and labels:
[1] = tested on: fibrin-induced microglia activation; assay: Image-based assay of fibrin-induced microglia activation (HTS and dose response); type: cell-based, rat; details: for IC50 / inhibition at 10 µM: Rattus norvegicus, Microglia; for inhibition at 10 µM: primary microglia HTS, fibrin stimulation, increased cell size (>800 μm^2) as marker of activation, read-out: Fibrin % inhibition
[2] = tested on: LPS-induced microglia activation; assay: Image-based assay of LPS-induced microglia activation (HTS and dose response); type: cell-based, rat; details: Rattus norvegicus, Microglia; for inhibition at 10 µM: primary microglia HTS, LPS stimulation, increased cell size (>800 μm^2) as marker of activation, read-out: LPS % inhibition
[3] = tested on: fibrin- and LPS-induced microglia activation; assay: cells; type: cell-based, rat; details: for inhibition at 10 µM: Rattus norvegicus
[4] = in vitro; details: rat, Cell Toxicity IC50 (uM) [cFib assay]
[5] = in vitro; details: rat
[6] = tested on: primary rat microglia; assay: Cell toxicity (dead cells, size <150 μm2) in LPS assay; details: for LPS % cell toxicity: primary microglia HTS, LPS stimulation, decreased size (<150 μm^2) as marker of toxicity; for IC50: read-out: Cell Toxicity IC50 (uM) [LPS assay], LPS assay
[7] = tested on: primary rat microglia; assay: Cell toxicity (dead cells, size <150 μm2) in coated fibrin (cFib) assay; details: primary microglia HTS, fibrin stimulation; decreased size (<150 μm^2) as marker of toxicity;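 on Fibrin % cell toxicity: share of dead cells sized under 150 µm2 at 10 µM in fibrin-stimulated microglia HTS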
[8] = 48 h, Table 1, dose response 0.001-20 μM, triplicates, primary rat microglia, 48 h, read-out: Fibrin IC50
[9] = Table 3, read-out: Fibrin IC50 (uM) (Suppl. Table 7)
[10] = dose response, fibrin-induced microglia activation, read-out: Fibrin IC50
[11] = fibrin-induced microglia activation, dose response, read-out: Fibrin IC50 (uM) (Suppl. Table 7)
[12] = 48 h, Table 1, dose response 0.001-20 μM, triplicates, primary rat microglia, 48 h, read-out: LPS IC50
[13] = LPS-induced microglia activation, dose response, read-out: LPS IC50 (uM) (Suppl. Table 7)
[14] = Table 3, read-out: LPS IC50 (uM) (Suppl. Table 7)
[15] = dose response, LPS-induced microglia activation, read-out: LPS IC50
[16] = HTS of 1907 compounds, quadrant by fibrin and LPS inhibition
[17] = Microglia, Table 3, read-out: Cherry-picked Hit (Suppl. Table 7)
[18] = Microglia, HTS hit classification, read-out: Hit
[19] = quadrant by fibrin and LPS inhibition in HTS of 1907 compounds
[20] = hit classification in microglia HTS, read-out: Cherry-picked Hit (Suppl. Table 7)

SMILES | IC50 [1, 8] | IC50 [1, 9] | IC50 [1, 10] | IC50 [1, 11] | inhibition at 10 µM [1] | IC50 [2, 12] | inhibition at 10 µM ([2]; 48 h) | IC50 [2, 13] | IC50 [2, 15] | Quadrant (FIG. 5b) [3, 16] | inhibition at 10 µM [3, 17] | inhibition at 10 µM [3, 18] | Quadrant (FIG. 5b) ([3]; Table 1, screen at 10 μM) | Quadrant (FIG. 5b) ([3]; Table 3, screen at 10 μM) | Quadrant (FIG. 5b) [3, 19] | IC50 ([4]; Table 3) | IC50 ([4]; cFib assay) | IC50 [5] | LPS % cell toxicity [6] | Fibrin % cell toxicity [7] | further results
CC(NCCc1ccc(O)cc1)C(O)c1ccc(O)cc1 (centres unmarked) [Ritodrine hydrochloride, reference compound] | 0.6 µM | 0.6 µM | 0.6 µM | 0.6 µM | 51% | > 20 µM | 36% | > 20 µM | > 20 µM | Q3 | > 50% | > 50% | Q3 | Q3 | Q3 | > 20 µM | > 20 µM | > 20 µM | 1% | 1% | Fibrin Selectivity [1]: 33; Fibrin Selectivity (LOG10) [1]: 1.51; IC50 ([1]; Table 6, read-out: Fibrin IC50 (uM) (Suppl. Table 7)): 0.6 µM; Fibrin Selectivity (LOG10) ([1]; fibrin vs LPS, LOG10, Table 6): 1.51; Fibrin Selectivity ([1]; fibrin vs LPS, Table 6): 33; IC50 [2, 14]: > 20 µM; IC50 ([2]; Table 6, read-out: LPS IC50 (uM) (Suppl. Table 7)): > 20 µM; Quadrant (FIG. 5b) ([3]; microglia HTS, Table 6): Q3; IC50 ([4]; cFib assay, Table 6): > 20 µM; IC50 [6]: > 20 µM; IC50 ([6]; Table 6): > 20 µM
CC(C)c1nc(N(C)S(C)(=O)=O)nc(-c2ccc(F)cc2)c1/C=C/[C@@H](O)C[C@@H](O)CC(=O)O [Rosuvastatin, reference compound] | 0.3 µM | 0.3 µM | 0.3 µM | 0.3 µM | 93% | 3 µM | 95% | 3 µM | 3 µM | Q2 | > 50% | > 50% | Q2 | Q2 | Q2 | 20 µM | 20 µM | > 20 µM | 4% | 2% | Fibrin Selectivity [1]: 12; Fibrin Selectivity (LOG10) [1]: 1.09; IC50 [2, 14]: 3 µM; IC50 [6]: > 20 µM
OCc1ccccc1O[C@@H]1O[C@H](CO)[C@@H](O)[C@H](O)[C@H]1O [Salicin, reference compound] | > 20 µM |  | > 20 µM | > 20 µM | 76% | > 20 µM | 61% | > 20 µM | > 20 µM | Q2 |  | > 50% | Q2 |  | Q2 |  | > 20 µM | > 20 µM | 1% | 1% | inhibition at 10 µM [3, 20]: > 50%
O=C1C=C2C=C[C@@H]3C[C@@]2(O1)[C@H]1CCCCN31 [Securinine, reference compound] | 2 µM | 2 µM | 2 µM | 2 µM | 104% | 6 µM | 106% | 6 µM | 6 µM | Q2 | > 50% | > 50% | Q2 | Q2 | Q2 | > 20 µM | > 20 µM | 12 µM | 1% | 2% | Fibrin Selectivity [1]: 3; Fibrin Selectivity (LOG10) [1]: 0.40; IC50 [2, 14]: 6 µM
Nc1ccc(S(=O)(=O)Nc2cnc3ccccc3n2)cc1 [Sulfaquinoxaline sodium, reference compound] | > 20 µM |  | > 20 µM | > 20 µM | 106% | > 20 µM | 104% | > 20 µM | > 20 µM | Q2 |  | > 50% | Q2 |  | Q2 |  | > 20 µM | > 20 µM | 3% | 3% | inhibition at 10 µM [3, 20]: > 50%
[H]/N=C(/NCCCCC)N/N=C/c1c[nH]c2ccc(OC)cc12 [Tegaserod maleate, reference compound] | 1 µM | 1 µM | 1 µM | 1 µM | 100% | 19 µM | 86% | 19 µM | 19 µM | Q2 | > 50% | > 50% | Q2 | Q2 | Q2 | > 20 µM | > 20 µM | > 20 µM | 2% | 2% | Fibrin Selectivity [1]: 20; Fibrin Selectivity (LOG10) [1]: 1.29; IC50 [2, 14]: 19 µM; IC50 [6]: > 20 µM
COc1ccc(-n2nc(CCC(=O)N(C)O)cc2-c2ccc(Cl)cc2)cc1 [Tepoxalin, reference compound] | 3 µM | 3 µM | 3 µM | 3 µM | 76% | 18 µM | 66% | 18 µM | 18 µM | Q2 | > 50% | > 50% | Q2 | Q2 | Q2 | > 20 µM | > 20 µM | > 20 µM | 2% | 1% | Fibrin Selectivity [1]: 6; Fibrin Selectivity (LOG10) [1]: 0.75; IC50 [2, 14]: 18 µM; IC50 [6]: > 20 µM
c1ccc2[nH]c(-c3cscn3)nc2c1 [Thiabendazole, reference compound] | > 20 µM |  | > 20 µM | > 20 µM | 58% | > 20 µM | 62% | > 20 µM | > 20 µM | Q2 |  | > 50% | Q2 |  | Q2 |  | > 20 µM | > 20 µM | 1% | 1% | inhibition at 10 µM [3, 20]: > 50%
Cc1ccc(S(=O)(=O)NC(=O)NN2CCCCCC2)cc1 [Tolazamide, reference compound] | 12 µM | 12 µM | 12 µM | 12 µM | 88% | > 20 µM | 42% | > 20 µM | > 20 µM | Q3 | > 50% | > 50% | Q3 | Q3 | Q3 | > 20 µM | > 20 µM | > 20 µM | 0% | 1% | Fibrin Selectivity [1]: 2; Fibrin Selectivity (LOG10) [1]: 0.23; IC50 [2, 14]: > 20 µM; IC50 [6]: > 20 µM
Cc1cccc(N(C)C(=S)Oc2ccc3ccccc3c2)c1 [Tolnaftate, reference compound] | 2 µM | 2 µM | 2 µM | 2 µM | 76% |  | 60% |  |  | Q2 | > 50% | > 50% | Q2 | Q2 | Q2 | > 20 µM | > 20 µM | > 20 µM | 1% | 1% | IC50 [6]: > 20 µM
Cc1cc(-n2c(=O)[nH]c(=O)n(C)c2=O)ccc1Oc1ccc(SC(F)(F)F)cc1 [Toltrazuril, reference compound] | > 20 µM |  | > 20 µM | > 20 µM | 104% | > 20 µM | 90% | > 20 µM | > 20 µM | Q2 |  | > 50% | Q2 |  | Q2 |  | > 20 µM | > 20 µM | 2% | 3% | inhibition at 10 µM [3, 20]: > 50%
